Reference: patent publication US8637521B2, “Substituted piperazin-2,5-diones and their use as multifunctional bioactive compounds” (priority 2006, dated 2014)
Square brackets hold non-standard residues; d marks the D form. Peptide text beside a SMILES is read from it. * marks the point of attachment. X1 = O=C(O)CC[C@@H]1NC(=O)[C@H](CCCCN*)NC1=O

What was measured:
[1] = tested on: hemopoietic precursor cells; assay: Exogenous spleen colonies from bone marrow irradiated ex vivo with 1 Gy; format: in vivo
Protocol: In this study, the method of exogenous spleen colonies was applied. A suspension of intact bone marrow cells was irradiated ex vivo in the dose of 1 Gy. Different doses of Neogen or cyclic peptides were injected IP, 1M, subcutaneous or introduced per os to lethally irradiated recipients within an hour after the injection of irradiated bone marrow. Colonies were counted on day 8. All data in each group was the mean of three tests.

[2] = target: μ-receptor (isolated guinea pig ileum, GPI) (Cavia porcellus, UniProt P97266); assay: Peripheral opioid activity: inhibition of electrically-induced contractions of isolated guinea pig ileum (GPI); settings: for Value of pD2 (M ± m): negative logarithm of EC50; for EC50: read-out: Median EC50 in M, concentration reducing contraction amplitude by 50%, 5 replications
Protocol: The segment of GPI about 1 cm long was placed into a 10-ml organ bath containing Krebs solution at 34° C. […] Resting tension of the organ was 1 g. The segment of GPI was stimulated by single pulses duration 1 ms with 0.1 Hz at 80 V. The solution with isolated organs was constantly aerated. The contractions were recorded in an isometrical mode by a sensor K 30 (Hugo Sachs Elektronic KG) with paper register Rikadenki-series (Japan).
The substances tested were dissolved in distilled water and added cumulatively to the organ bath at a volume of 5 to 30 mcl. Each subsequent substance was added after the isolated organs were washed 3 or 4 times for 12-15 min. On the basis of the data obtained, dose-effects curves were plotted and the activity of substances was expressed by IC50 or pD2. The pD2 index was equal to a negative decimal logarithm of the substance concentration causing a 50% of the maximal effect.
New dermorphin analogues were tested in the standard model of Guinea pig ileum binding test.
For confirmation of opioid activity, the specific antagonist naloxson was used in concentration of 10^−5M. Each molecule was tested in 5 independent replications and relative activity was calculated as negative logarithm of EC50 (pD2).

Chain of μ-receptor (isolated guinea pig ileum, GPI) (P97266 whole entry): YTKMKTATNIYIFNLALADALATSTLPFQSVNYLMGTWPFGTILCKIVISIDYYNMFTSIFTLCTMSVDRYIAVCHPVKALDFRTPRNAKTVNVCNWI

Structure (SMILES) | % stimulation ([1]; 100 μg/kg per/os) | Colony count ([1]; 100 μg/kg per/os) | % stimulation ([1]; 100 μg/kg s/c) | Colony count ([1]; 100 μg/kg s/c) | Value of pD2 (M ± m) [2] | EC50 [2]
COC(=O)[C@H](Cc1c[nH]c2ccccc12)NC(=O)CC[C@@H]1NC(=O)[C@H](C)NC1=O [Compound 16, Cyclo-L-Ala-L-Glu-(L-Trp-OMe)] | 74.8% | 8.9 ± 0.5 | 67.2% | 8.0 ± 0.5 |  | 
C[C@@H](NC(=O)[C@H](Cc1ccccc1)NC(=O)[C@@H](C)NC(=O)[C@@H](N)Cc1ccc(O)cc1)C(=O)NCCCC[C@@H]1NC(=O)[C@H](CCC(=O)O)NC1=O [Compound 44, Cyclo-[L-Lys(H-Tyr-D-Ala-Phe-D-Ala)-L-Glu(OH)]] (H-Y[dA]F[dA]-X1) |  |  |  |  | 6.15 ± 0.10 | 570 nM
COC(=O)[C@H](Cc1c[nH]c2ccccc12)NC(=O)CC[C@@H]1NC(=O)[C@H](CCCCNC(=O)[C@@H](C)NC(=O)[C@H](Cc2ccccc2)NC(=O)[C@@H](C)NC(=O)[C@@H](N)Cc2ccc(O)cc2)NC1=O [Compound 45, Cyclo-[L-Lys(H-Tyr-D-Ala-Phe-D-Ala)-L-Glu(L-Trp-OMe)]] |  |  |  |  | 5.68 ± 0.09 | 2000 nM
C[C@@H](NC(=O)[C@H](Cc1ccccc1)NC(=O)[C@@H](C)NC(=O)[C@@H](N)Cc1ccc(O)cc1)C(=O)N[C@@H](Cc1ccc(O)cc1)C(=O)N1CCC[C@H]1C(=O)N[C@@H](CO)C(=O)NCCCC[C@@H]1NC(=O)[C@H](CCC(=O)N[C@@H](Cc2c[nH]c3ccccc23)C(N)=O)NC1=O [Compound 46, Cyclo-[L-Lys(H-Tyr-D-Ala-Phe-D-Ala-Tyr-Pro-Ser)-L-Glu(L-Trp-NH2)]] |  |  |  |  | 7.96 ± 0.02 | 11 nM
C[C@@H](NC(=O)[C@H](Cc1ccccc1)NC(=O)[C@@H](C)NC(=O)[C@@H](N)Cc1ccc(O)cc1)C(=O)N[C@@H](Cc1ccc(O)cc1)C(=O)N1CCC[C@H]1C(=O)N[C@@H](CO)C(=O)NCCCC[C@@H]1NC(=O)[C@H](CCC(=O)N[C@@H](Cc2c[nH]c3ccccc23)C(=O)O)NC1=O [Compound 47, Cyclo-[L-Lys(H-Tyr-D-Ala-Phe-D-Ala-Tyr-Pro-Ser)-L-Glu(L-Trp-OH)]] |  |  |  |  | 7.52 ± 0.07 | 33 nM
C[C@@H](NC(=O)[C@@H](N)Cc1ccc(O)cc1)C(=O)N[C@@H](Cc1ccccc1)C(=O)NCC(=O)N[C@@H](Cc1ccc(O)cc1)C(=O)N1CCC[C@H]1C(=O)N[C@@H](CO)C(N)=O [Compound 48, H-Tyr-D-Ala-Phe-Gly-Tyr-Pro-Ser-NH2] |  |  |  |  | 8.56 ± 0.12 | 2.5 nM
C[C@@H](NC(=O)[C@H](Cc1ccccc1)NC(=O)[C@@H](C)NC(=O)[C@@H](N)Cc1ccc(O)cc1)C(=O)N[C@@H](Cc1ccc(O)cc1)C(=O)N1CCC[C@H]1C(=O)N[C@@H](CO)C(N)=O [Compound 49, H-Tyr-D-Ala-Phe-D-Ala-Tyr-Pro-Ser-NH2] (H-Y[dA]F[dA]YPS-NH2) |  |  |  |  | 7.55 ± 0.11 | 30 nM
